According to PubChem BioAssay (NCI):
Several values for one entry are separate records, joined by “and”; a condition that tells them apart may be missing. Equal entries are not always repeated.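 These data come from cells grown in 96-well plates and exposed to compound for 48 hours at five concentrations. GI50 marks 50% less growth. The concentration for full growth arrest is given as TGI.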

Tested on: SN12C renal
Assay: inhibition of tumour cell growth, NCI panel, 48 h

Row | Structure (SMILES) | GI50 [µM] | TGI
1 | C=C(CNCCO)[C@@H]1CC[C@]2(CO)CC[C@]3(C)[C@H](CC[C@@H]4[C@@]5(C)CCC(N)C(C)(C)[C@@H]5CC[C@]43C)[C@@H]12 (stereo partly drawn) | 1.97 | 4.07 µM
2 | Nc1cc2nc3ccccc3sc-2cc1=O | 1.72 | 3.4 µM
3 | COc1cc2nc(-c3ccc(C(F)(F)F)cc3)cc(OCCCN3CCC(O)CC3)c2cc1OC | 1.44 | 19.7 µM
4 | CC(=O)C(CN(C(C)C)C(C)C)C(c1ccccc1)c1c(O)c2ccccc2oc1=O (stereo not drawn) | – | > 100 µM
5 | O=C1NNC(=O)c2ccccc2SSc2ccccc2C(=O)NNC(=O)c2ccccc2SSc2ccccc21 | 17 | 50 µM and > 100 µM
6 | NC(CCc1nc(-c2ccc(Cl)cc2)cs1)C(=O)O (stereo not drawn) | – | > 100 µM
7 | COc1cc(C(=O)/C=C/c2sc(Cl)nc2Cl)cc(OC)c1OC | 1.74 | 3.2 µM
8 | COc1cc2nc(C)nc(N[C@H](C)c3cc(N)cc(C(F)(F)F)c3)c2cc1O[C@H]1CCOC1 | 6.46 | 21.9 µM
9 | CCOC(=O)C1=C(C)CC2C(=O)OC(=O)C2C1(C)C (stereo not drawn) | – | > 100 µM
10 | O=C1c2ccccc2C(=O)c2sc(Nc3cccc(Cl)c3)nc21 | – | 2.84 µM
11 | Fc1ccc(Nc2ncnc3ccc(-c4cnc5[nH]ccc5c4)cc23)cc1Cl | 1.73 | 4.88 µM
12 | CN(C)CCCNC1=C(Cl)C(=O)c2ccccc2C1=O | 1.62 | 3.12 µM
13 | O=C(Nc1ccc(F)cc1F)c1cc(I)ccc1O | 2.46 | 8.54 µM
14 | CCOc1ccccc1-n1c(CN2CCN(C(=O)COc3ccc(CNCCCCCCN4C5CCCC4CC(OC(=O)Nc4cc(C)ccc4OC)C5)cc3)CC2)nc2ccccc2c1=O (stereo not drawn) | 1.76 | 3.24 µM

Tested on: SNB-19 CNS
Assay: inhibition of tumour cell growth, NCI panel, 48 h

Row | Structure (SMILES) | GI50 [µM] | TGI
15 | COc1cc2c(c(OC)c1O)C(=O)C(OC)C(c1ccc(O)c(O)c1)O2 (stereo not drawn) | 0.275 | > 100 µM
16 | Cn1ccnc1C(=O)/C=C/c1ccc(CC(=O)Nc2ccc(Br)cc2)cc1 | 2.61 | 5.75 µM
17 | CCOC(=O)Nc1nc2ccc(OCC)cc2s1 | > 100 | > 100 µM
18 | NS(=O)(=O)c1ccccc1C(=O)N/N=C(\c1nc2ccc([N+](=O)[O-])cc2[nH]c1=O)C(O)c1ccc([N+](=O)[O-])cc1 (stereo not drawn) | – | > 100 µM
19 | COc1ccc2c(c1)C(=O)/C(=C/c1ccc(OCC(=O)Nc3nccs3)cc1)O2 | 20.4 | > 65.7 µM
20 | CC(C)c1ccc(C(C)C(=O)N(CC2=C(C(C)c3ccccn3)c3ccccc3C2)C(C)C)cc1 (stereo not drawn) | 6.66 | > 100 µM
21 | Cc1nc2c(nc1C)C(=O)c1ccccc1C2=O | – | 19.4 µM
22 | Nc1ccc(C(=O)N/C(=C\c2ccc3c(c2)OCO3)c2nc3[nH]c(=S)[nH]c(=O)c3[nH]2)cc1 | – | > 100 µM
23 | O[C@H]1[C@H]2c3cc4c(cc3CN3CCC(=C[C@@H]1O)[C@H]23)OCO4 | – | 14.9 µM
24 | O=C(Nc1ccc(I)cc1)c1cc([N+](=O)[O-])ccc1O | 5.5 | > 100 µM
25 | Cc1cc(=O)n2[nH]c(-c3ccc(C(C)(C)C)cc3)cc2n1 | 10.1 | > 100 µM
26 | CNC(=O)c1ccccc1Nc1nc(Nc2ccc(N3CCOCC3)cc2OC)ncc1Cl | 2.05 | > 100 µM
27 | O=C(N/C(=C\c1cc(Cl)ccc1Cl)c1nc2[nH]c(=S)[nH]c(=O)c2[nH]1)c1ccccc1 | – | > 100 µM
28 | O=C(CN1CCN(c2cc3c(cc2F)c(=O)c(C(=O)N/N=C/c2ccccc2O)cn3C2CC2)CC1)N/N=C\c1ccccc1O | 1.18 | > 100 µM
29 | C=C(CNCCO)[C@@H]1CC[C@]2(CO)CC[C@]3(C)[C@H](CC[C@@H]4[C@@]5(C)CCC(N)C(C)(C)[C@@H]5CC[C@]43C)[C@@H]12 (stereo partly drawn) | 2.27 | 5.23 µM
30 | Nc1cc2nc3ccccc3sc-2cc1=O | 6.13 | 20 µM
31 | COc1cc2nc(-c3ccc(C(F)(F)F)cc3)cc(OCCCN3CCC(O)CC3)c2cc1OC | 10.5 | 28.3 µM
32 | CC(=O)C(CN(C(C)C)C(C)C)C(c1ccccc1)c1c(O)c2ccccc2oc1=O (stereo not drawn) | – | > 100 µM
33 | O=C1NNC(=O)c2ccccc2SSc2ccccc2C(=O)NNC(=O)c2ccccc2SSc2ccccc21 | 6.35 | 50 µM and > 100 µM
34 | NC(CCc1nc(-c2ccc(Cl)cc2)cs1)C(=O)O (stereo not drawn) | – | > 100 µM
35 | COc1cc(C(=O)/C=C/c2sc(Cl)nc2Cl)cc(OC)c1OC | 1.72 | 3.18 µM
36 | COc1cc2nc(C)nc(N[C@H](C)c3cc(N)cc(C(F)(F)F)c3)c2cc1O[C@H]1CCOC1 | 12.7 | 27.4 µM
37 | CCOC(=O)C1=C(C)CC2C(=O)OC(=O)C2C1(C)C (stereo not drawn) | – | > 100 µM
38 | O=C1c2ccccc2C(=O)c2sc(Nc3cccc(Cl)c3)nc21 | – | 4.36 µM
39 | Fc1ccc(Nc2ncnc3ccc(-c4cnc5[nH]ccc5c4)cc23)cc1Cl | 1.94 | 5.94 µM
40 | CN(C)CCCNC1=C(Cl)C(=O)c2ccccc2C1=O | 1.76 | 3.28 µM
41 | O=C(Nc1ccc(F)cc1F)c1cc(I)ccc1O | 3.11 | > 100 µM
42 | CCOc1ccccc1-n1c(CN2CCN(C(=O)COc3ccc(CNCCCCCCN4C5CCCC4CC(OC(=O)Nc4cc(C)ccc4OC)C5)cc3)CC2)nc2ccccc2c1=O (stereo not drawn) | 1.76 | 3.35 µM

Tested on: SR leukemia
Assay: inhibition of tumour cell growth, NCI panel, 48 h

Row | Structure (SMILES) | GI50 [µM] | TGI
43 | COc1cc2c(c(OC)c1O)C(=O)C(OC)C(c1ccc(O)c(O)c1)O2 (stereo not drawn) | 0.0689 | > 100 µM
44 | Cn1ccnc1C(=O)/C=C/c1ccc(CC(=O)Nc2ccc(Br)cc2)cc1 | 0.575 | > 16.7 µM
45 | CCOC(=O)Nc1nc2ccc(OCC)cc2s1 | 1.12 | > 100 µM
46 | NS(=O)(=O)c1ccccc1C(=O)N/N=C(\c1nc2ccc([N+](=O)[O-])cc2[nH]c1=O)C(O)c1ccc([N+](=O)[O-])cc1 (stereo not drawn) | – | > 100 µM
47 | COc1ccc2c(c1)C(=O)/C(=C/c1ccc(OCC(=O)Nc3nccs3)cc1)O2 | 0.27 | 1.15 µM
48 | CC(C)c1ccc(C(C)C(=O)N(CC2=C(C(C)c3ccccn3)c3ccccc3C2)C(C)C)cc1 (stereo not drawn) | 2.67 | 9.58 µM
49 | Cc1nc2c(nc1C)C(=O)c1ccccc1C2=O | – | 28.2 µM
50 | Nc1ccc(C(=O)N/C(=C\c2ccc3c(c2)OCO3)c2nc3[nH]c(=S)[nH]c(=O)c3[nH]2)cc1 | – | > 100 µM
51 | O[C@H]1[C@H]2c3cc4c(cc3CN3CCC(=C[C@@H]1O)[C@H]23)OCO4 | – | 4.24 µM
52 | O=C(Nc1ccc(I)cc1)c1cc([N+](=O)[O-])ccc1O | 6.09 | 46.5 µM
53 | Cc1cc(=O)n2[nH]c(-c3ccc(C(C)(C)C)cc3)cc2n1 | 8.03 | > 100 µM
54 | CNC(=O)c1ccccc1Nc1nc(Nc2ccc(N3CCOCC3)cc2OC)ncc1Cl | 0.0251 | 3.25 µM
55 | O=C(N/C(=C\c1cc(Cl)ccc1Cl)c1nc2[nH]c(=S)[nH]c(=O)c2[nH]1)c1ccccc1 | – | > 100 µM
56 | O=C(CN1CCN(c2cc3c(cc2F)c(=O)c(C(=O)N/N=C/c2ccccc2O)cn3C2CC2)CC1)N/N=C\c1ccccc1O | 0.304 | > 100 µM
57 | C=C(CNCCO)[C@@H]1CC[C@]2(CO)CC[C@]3(C)[C@H](CC[C@@H]4[C@@]5(C)CCC(N)C(C)(C)[C@@H]5CC[C@]43C)[C@@H]12 (stereo partly drawn) | 1.9 | 5.22 µM
58 | Nc1cc2nc3ccccc3sc-2cc1=O | 4.27 | > 100 µM
59 | COc1cc2nc(-c3ccc(C(F)(F)F)cc3)cc(OCCCN3CCC(O)CC3)c2cc1OC | 0.274 | 16.6 µM
60 | CC(=O)C(CN(C(C)C)C(C)C)C(c1ccccc1)c1c(O)c2ccccc2oc1=O (stereo not drawn) | – | > 100 µM
61 | O=C1NNC(=O)c2ccccc2SSc2ccccc2C(=O)NNC(=O)c2ccccc2SSc2ccccc21 | 3.79 | 50 µM and 32.7 µM
62 | NC(CCc1nc(-c2ccc(Cl)cc2)cs1)C(=O)O (stereo not drawn) | – | > 100 µM
63 | COc1cc(C(=O)/C=C/c2sc(Cl)nc2Cl)cc(OC)c1OC | 0.384 | 3.23 µM
64 | COc1cc2nc(C)nc(N[C@H](C)c3cc(N)cc(C(F)(F)F)c3)c2cc1O[C@H]1CCOC1 | 2.25 | 29.2 µM
65 | CCOC(=O)C1=C(C)CC2C(=O)OC(=O)C2C1(C)C (stereo not drawn) | – | > 100 µM
66 | O=C1c2ccccc2C(=O)c2sc(Nc3cccc(Cl)c3)nc21 | – | 5.47 µM
67 | Fc1ccc(Nc2ncnc3ccc(-c4cnc5[nH]ccc5c4)cc23)cc1Cl | 2.68 | > 100 µM
68 | CN(C)CCCNC1=C(Cl)C(=O)c2ccccc2C1=O | 2.8 | 7.61 µM
69 | O=C(Nc1ccc(F)cc1F)c1cc(I)ccc1O | 3.05 | > 100 µM
70 | CCOc1ccccc1-n1c(CN2CCN(C(=O)COc3ccc(CNCCCCCCN4C5CCCC4CC(OC(=O)Nc4cc(C)ccc4OC)C5)cc3)CC2)nc2ccccc2c1=O (stereo not drawn) | 0.656 | 1.59 µM
